# Values quoted from earlier work, collected in patent US8790626B2, “Method for treating hair growth disorders, such as female pattern alopecia, and compositions useful therefore” (The University of Kentucky, priority 2005, dated 2014).
# How the values were obtained:
# [1] = U.S. Pat. No. 6,924,299
# [2] = Jacobson, et al., 2005
SMILES,Blood flow and oxygen delivery to tissue [1],Epidermal differentiation and skin barrier integrity [2]
CCCCCCCCOC(=O)c1cccnc1 [octyl nicotinate],stimulates blood flow and oxygen delivery to tissue,–
"CCCCCCCCCCCCCCOC(=O)c1cccnc1 [Myristyl nicotinate, myristyl nicotinate]",–,promote epidermal differentiation leading to strong enhancement of skin barrier integrity
